Legend:
[1] = test system: HBV; assay: anti HBV activity, HepG2.117 cell line, intracellular HBV DNA by realtime PCR; type: cell-based; conditions: Hepatitis B virus, HepG2.117, 72 h, HepG2.117 cell line (Tet-off), 3 days of treatment, intracellular HBV DNA quantified by realtime PCR; read-out: HBV-AVE-HepG2.117 EC50
Outline: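 Readout was intracellular HBV DNA by real-time PCR (HBV-specific primers and probe) after 3 days of compound exposure. Serial dilutions were tested in duplicate on HepG2.117 cells, a stable inducible HBV producer in which replication is switched on when doxycycline is absent.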

[2] = Cytotoxicity in HepG2 cells, Resazurin assay; conditions: human, HepG2 cells, TOX-HepG2-4 d CC50 (μM), HepG2 cells incubated for 4 days, viability by Resazurin assay

Cn1cc2c(c1C(=O)Nc1ccc(F)c(F)c1)OC[C@@H]([C@@H](O)c1ccccc1)NS2(=O)=O [Compound 63, (3S)—N-(3,4-difluorophenyl)-3-[(S)-hydroxy(phenyl)methyl]-7-methyl-1,1-dioxo-3,4-dihydro-2H-pyrrolo[3,4-b][1,4,5]oxathiazepine-6-carboxamide]
EC50 [1]: 0.24 µM
CC50 at 4 days [2]: > 25 µM

C[C@H](O)[C@H]1COc2c(cn(C)c2C(=O)Nc2ccc(F)c(C(F)F)c2)S(=O)(=O)N1 [Compound 64, (3R)—N-[3-(difluoromethyl)-4-fluoro-phenyl]-3-[(1S)-1-hydroxyethyl]-7-methyl-1,1-dioxo-3,4-dihydro-2H-pyrrolo[3,4-b][1,4,5]oxathiazepine-6-carb oxamide]
EC50 [1]: 0.008 µM
CC50 at 4 days [2]: > 25 µM

C[C@H](O)[C@H]1COc2c(cn(C)c2C(=O)Nc2ccc(F)c(C#N)c2)S(=O)(=O)N1 [Compound 65, (3R)—N-(3-cyano-4-fluoro-phenyl)-3-[(1S)-1-hydroxyethyl]-7-methyl-1,1-dioxo-3,4-dihydro-2H-pyrrolo[3,4-b][1,4,5]oxathiazepine-6-carboxamide]
EC50 [1]: 0.007 µM
CC50 at 4 days [2]: > 25 µM

C[C@H](O)[C@H]1COc2c(cn(C)c2C(=O)Nc2ccnc(Br)c2)S(=O)(=O)N1 [Compound 66, (3R)—N-(2-bromo-4-pyridyl)-3-[(1S)-1-hydroxyethyl]-7-methyl-1,1-dioxo-3,4-dihydro-2H-pyrrolo[3,4-b][1,4,5]oxathiazepine-6-carboxamide]
EC50 [1]: 0.047 µM
CC50 at 4 days [2]: > 25 µM

CC1CNc2c(cn(C)c2C(=O)Nc2ccc(F)c(F)c2)S(=O)(=O)N1 (stereo not shown) [Compound 67, N-(3,4-difluorophenyl)-3,7-dimethyl-1,1-dioxo-2,3,4,5-tetrahydropyrrolo[3,4-f][1,2,5]thiadiazepine-6-carboxamide]
EC50 [1]: 0.069 µM
CC50 at 4 days [2]: > 25 µM

C[C@@H](O)[C@H]1C=Cc2c(cn(C)c2C(=O)Nc2ccc(F)c(F)c2)S(=O)(=O)N1 [Compound 69, (3R)—N-(3,4-difluorophenyl)-3-[(1R)-1-hydroxyethyl]-7-methyl-1,1-dioxo-2,3-dihydropyrrolo[3,4-f]thiazepine-6-carboxamide]
EC50 [1]: 0.033 µM
CC50 at 4 days [2]: > 25 µM

C[C@@H](O)[C@H]1CCc2c(cn(C)c2C(=O)Nc2ccc(F)c(F)c2)S(=O)(=O)N1 [Compound 70, (3R)—N-(3,4-difluorophenyl)-3-[(1R)-1-hydroxyethyl]-7-methyl-1,1-dioxo-2,3,4,5-tetrahydropyrrolo[3,4-f]thiazepine-6-carboxamide]
EC50 [1]: 0.014 µM
CC50 at 4 days [2]: > 25 µM

Cn1cc2c(c1C(=O)Nc1ccc(F)c(C#N)c1)OC[C@H](Cc1cccnc1)NS2(=O)=O [Compound 71, (3S)—N-(3-cyano-4-fluoro-phenyl)-7-methyl-1,1-dioxo-3-(3-pyridylmethyl)-3,4-dihydro-2H-pyrrolo[3,4-b][1,4,5]oxathiazepine-6-carboxamide]
EC50 [1]: 0.003 µM
CC50 at 4 days [2]: > 25 µM

Cn1cc2c(c1C(=O)Nc1ccc(F)c(F)c1)OCC(C1CCN(C(=O)OC(C)(C)C)CC1)NS2(=O)=O (stereo not shown) [Compound 72, tert-butyl 4-[6-[(3,4-difluorophenyl)carbamoyl]-7-methyl-1,1-dioxo-3,4-dihydro-2H-pyrrolo[3,4-b][1,4,5]oxathiazepin-3-yl]piperidine-1-carboxylate]
EC50 [1]: 0.05 µM
CC50 at 4 days [2]: > 25 µM

Cn1cc2c(c1C(=O)Nc1ccc(F)c(F)c1)OCC(C1CCNCC1)NS2(=O)=O (stereo not shown) [Compound 73, N-(3,4-difluorophenyl)-7-methyl-1,1-dioxo-3-(4-piperidyl)-3,4-dihydro-2H-pyrrolo[3,4-b][1,4,5]oxathiazepine-6-carboxamide]
EC50 [1]: 0.48 µM
CC50 at 4 days [2]: > 25 µM

Cc1cc(NC(=O)c2c3c(cn2C)S(=O)(=O)N[C@@H](Cc2cccnc2)CO3)ccc1F [Compound 74, (3S)—N-(4-fluoro-3-methyl-phenyl)-7-methyl-1,1-dioxo-3-(3-pyridylmethyl)-3,4-dihydro-2H-pyrrolo[3,4-b][1,4,5]oxathiazepine-6-carboxamide]
EC50 [1]: 0.052 µM
CC50 at 4 days [2]: > 25 µM

Cn1cc2c(c1C(=O)Nc1ccc(F)c(C(F)F)c1)OC[C@H](Cc1cccnc1)NS2(=O)=O [Compound 75, (3S)—N-[3-(difluoromethyl)-4-fluoro-phenyl]-7-methyl-1,1-dioxo-3-(3-pyridylmethyl)-3,4-dihydro-2H-pyrrolo[3,4-b][1,4,5]oxathiazepine-6-carboxamide]
EC50 [1]: 0.007 µM
CC50 at 4 days [2]: > 25 µM

CN1CCC(C2COc3c(cn(C)c3C(=O)Nc3ccc(F)c(F)c3)S(=O)(=O)N2)CC1 (stereo not shown) [Compound 76, N-(3,4-difluorophenyl)-7-methyl-3-(1-methyl-4-piperidyl)-1,1-dioxo-3,4-dihydro-2H-pyrrolo[3,4-b][1,4,5]oxathiazepine-6-carboxamide]
EC50 [1]: 0.22 µM
CC50 at 4 days [2]: > 25 µM

C[C@H](O)[C@H]1COc2c(cn(C)c2C(=O)Nc2ccnc(C(F)F)c2)S(=O)(=O)N1 [Compound 77, (3R)—N-[2-(difluoromethyl)-4-pyridyl]-3-[(1S)-1-hydroxyethyl]-7-methyl-1,1-dioxo-3,4-dihydro-2H-pyrrolo[3,4-b][1,4,5]oxathiazepine-6-carboxamide]
EC50 [1]: 0.23 µM
CC50 at 4 days [2]: > 25 µM

Cn1cc2c(c1C(=O)Nc1ccc(F)c(F)c1)OCC(C1CCN(CC(F)(F)F)CC1)NS2(=O)=O (stereo not shown) [Compound 78, N-(3,4-difluorophenyl)-7-methyl-1,1-dioxo-3-[1-(2,2,2-trifluoroethyl)-4-piperidyl]-3,4-dihydro-2H-pyrrolo[3,4-b][1,4,5]oxathiazepine-6-carboxamide]
EC50 [1]: 0.056 µM
CC50 at 4 days [2]: > 25 µM

COC(C)(C)C1COc2c(cn(C)c2C(=O)Nc2ccc(F)c(F)c2)S(=O)(=O)N1 (stereo not shown) [Compound 80, N-(3,4-difluorophenyl)-3-(1-methoxy-1-methyl-ethyl)-7-methyl-1,1-dioxo-3,4-dihydro-2H-pyrrolo[3,4-b][1,4,5]oxathiazepine-6-carboxamide]
EC50 [1]: 0.018 µM
CC50 at 4 days [2]: > 25 µM

CC(C)C1CCc2c(cn(C)c2C(=O)Nc2ccc(F)c(F)c2)S(=O)(=O)N1 (stereo not shown) [Compound 81, N-(3,4-difluorophenyl)-3-isopropyl-7-methyl-1,1-dioxo-2,3,4,5-tetrahydropyrrolo[3,4-f]thiazepine-6-carboxamide]
EC50 [1]: 0.002 µM
CC50 at 4 days [2]: > 25 µM

CC(C)C1C=Cc2c(cn(C)c2C(=O)Nc2ccc(F)c(C(F)F)c2)S(=O)(=O)N1 (stereo not shown) [Compound 82, N-[3-(difluoromethyl)-4-fluoro-phenyl]-3-isopropyl-7-methyl-1,1-dioxo-2,3-dihydropyrrolo[3,4-f]thiazepine-6-carboxamide]
EC50 [1]: 0.004 µM
CC50 at 4 days [2]: > 25 µM

Cn1cc2c(c1C(=O)Nc1ccc(F)c(F)c1)OCC(CO)NS2(=O)=O (stereo not shown) [Compound 83, N-(3,4-difluorophenyl)-3-(hydroxymethyl)-7-methyl-1,1-dioxo-3,4-dihydro-2H-pyrrolo[3,4-b][1,4,5]oxathiazepine-6-carboxamide]
EC50 [1]: 0.058 µM
CC50 at 4 days [2]: > 25 µM

C[C@H](O)[C@H]1C=Cc2c(cn(C)c2C(=O)Nc2ccc(F)c(F)c2)S(=O)(=O)N1 [Compound 84, (3R)—N-(3,4-difluorophenyl)-3-[(1S)-1-hydroxyethyl]-7-methyl-1,1-dioxo-2,3-dihydropyrrolo[3,4-f]thiazepine-6-carboxamide]
EC50 [1]: 0.01 µM
CC50 at 4 days [2]: > 25 µM

From patent US10875876B2, “Cyclized sulfamoylarylamide derivatives and the use thereof as medicaments for the treatment of hepatitis B” (priority 2015, dated 2020)
